Patent publication US9174998B2, “(6S,9aS)-N-benzyl-6-[(4-hydroxyphenyl)methyl]-4,7-dioxo-8-({6-[3-(piperazin-1-yl)azetidin-1-yl]pyridin-2-yl}methyl)-2-(prop-2-en-1-yl)-octahydro-1H-pyrazino[2,1-c][1,2,4]triazine-1-carboxamide compound” (Eisai R&D Management Co., Ltd., priority 2013, dated 2015)
≈ marks a conversion by molar mass, not a printed value. Where two headings read alike, the source gives them in different places.

What was measured:
[1] = PAMPA test (parallel artificial membrane permeability assay); format: in vitro ADME; conditions: phosphate buffer pH 6.8, about 200 μM, about 5 hours, room temperature, read-out: Test Example 4 membrane permeation coefficient Pe
Protocol: A test solution (see below) was stirred while shaking at room temperature for about 5 hours using a 96-well PAMPA plate (BD Biosciences) in which a lipid had been precoated onto a polyvinylidene fluoride (PVDF) film to evaluate the membrane permeation coefficient Pe (cm/s) of each compound dissolved in the test solution (concentration: about 200 μM) upon the transport of the compound from a donor side to an acceptor side through a lipid membrane. The Pe value was calculated in accordance with equations 1 and 2, and the concentration of the compound on the donor side and the acceptor side was measured by a HPLC-UV method. In 0.3 mL of the test solution on the donor side is contained about 1% (v/v) of DMSO, since 3 μL of a DMSO solution containing the compound at a concentration of 20 mM was added to the test solution.
Test solution: a phosphate buffer solution having a pH value of 6.8 (90 mM of phosphate, 48 mM of NaCl, 5.4 mM of KCl)
Conditions for stirring: a multishaker MS-300 (AS ONE Corporation), 350 rpm
[formula] CD(t): compound concentration in donor well at time t CA(t): compound concentration in acceptor well at time t VD: donor well volume (0.3 mL) VA: acceptor well volume (0.2 mL) A: filter area (0.3 cm^2)

[2] = Evaluation of solubility (DMSO stock into PBS, HPLC-UV); format: physicochemical; conditions: Dulbecco's phosphate-buffered saline pH 7, room temperature, about 15 minutes shaking, values greater than 200 μM regarded as 200 μM, read-out: Test Example 3 solubility
Protocol: To 0.25 mL of a test solution a mentioned below was added 2.5 μL of a DMSO solution having a compound concentration of 20 mM. The resultant solution was shaken at room temperature for about 15 minutes (the conditions for the shaking are mentioned below). Subsequently, a supernatant was collected by a suction filtration under a reduced pressure. A DMSO solution having a compound concentration of 200 μM was used as a standard solution, and the concentration of a compound in a filtrate which was quantified by a HPLC-UV method was employed as a solubility (rounded off to the whole number). In this evaluation, since a value 200 μM became the upper limit operationally, all of quantification values greater than 200 μM were regarded as 200 μM.
Test solution: GIBCO (registered trade name) Dulbecco's phosphate-buffered saline (pH 7, Life Technologies Corporation)
Conditions for shaking: a microplate shaker N-704 (Nissinrika Corporation), speed 6

[3] = Evaluation of metabolic stability; format: in vitro ADME, human; conditions: 0.2 mg/mL HLM, 0.1 μM test substance, 15 minutes at 37° C., with vs without NADPH production
Protocol: A test substance was dissolved in DMSO so that the concentration of the resultant solution became 20 mM, and the solution was diluted with DMSO so that the concentration of the resultant solution became 1 mM. The metabolic stability of the test substance was evaluated using a human liver microsome (HLM) in which human liver was pooled. An assay buffer solution contained 0.2 mg/mL of HLM, a 0.1 M of phosphate potassium buffer solution (pH 7.4), 0.1 mM of EDTA, 0.33 mM of NADP+, 8 mM of glucose-6-phosphate, 0.1 U/mL of glucose-6-phosphate dehydrogenase, 6 mM of MgCl2, 0.1 μM of a test substance (final concentration in DMSO: 0.01%) in 0.15 mL of the final incubation volume. Fifteen minutes after the initiation of the reaction at 37° C., 0.15 mL of a acetonitrile/methanol mixed solution (7:3, by volume) was added to the solution to terminate the reaction. After centrifugation, the resultant supernatant was analyzed by LC-MSMS, peak areas were compared under the presence or absence of the production of NADPH, and the residual ratio of the test substance was calculated.

Wnt signal = assay: Detection of Wnt signal (TOPglow luciferase reporter, LiCl-stimulated); format: cell-based; conditions: Homo sapiens; HEK293 clone carrying pNeo-TOP reporter; LiCl stimulation; luciferase luminescence; read-out: Test Example 1 IC50 (concentration required for inhibiting the Wnt signal activity by 50%)
Protocol: pcDNA3.1(+) (invitrogen) was cleaved with restriction enzymes BglII and NotI, and an adapter BEHKS having a sequence shown below (containing restriction enzyme sites BglII, EcoRI, HindIII, KpnI, SacI and NotI) was inserted thereinto, thereby producing a plasmid pNeo-HKS.
Subsequently, a fragment having a length of about 2700 bp (containing a Wnt-responsive sequence and a luciferase gene), which was prepared by cleaving from a TOPglow plasmid contained in a TOPglow/FOPglow TCF Reporter Kit (upstate Catalog#17-366) with restriction enzymes HindIII and KpnI, was inserted between HindIII and KpnI in pNeo-HKS, thereby producing a plasmid pNeo-TOP. The plasmid pNeo-TOP was introduced into human fetus-derived renal cell strain HEK293, then a compound was selected using G418, and then a cell clone strain was established by a limiting dilution method. The cell clone strain was subjected to a Wnt signal detection test.
The cell clone strain was subcultured in a D-MEM glucose-rich culture medium (Wako Pure Chemical Industries, Ltd.) containing 10% FBS, and cells in a growth phase were used in the test. Cells were collected using trypsin-EDTA, the number of the cells was counted, and then the cells were suspended in a D-MEM glucose-rich culture medium containing 10% FBS so that the number of cells became 2×10^5 cells/mL. The cell suspension was added to a 96-well cell culture plate (Greiner Bio-One Co., Ltd., product number: 655083) in an amount of 0.1 mL/well and then cultured overnight in a 5% CO2 incubator (37° C.). After the culturing, a substance to be tested, which was dissolved in DMSO, was diluted with a D-MEM glucose-rich culture medium containing 10% of FBS and 80 mM of LiCl to produce a sample solution. The sample solution (0.1 mL) was added to each well and then cultured in a 5% CO2 incubator (37° C.) […]. Six hours after the addition of the sample solution, a supernatant was removed from each well, and then 50 μL of Bright-Glo™ Luciferase substrate (Promega, product number: E2620) was added thereto. The plate was put on a plate mixer for several seconds, and then the emission of light from each well was measured using a EnVision™ Multilabel plate reader (PerkinElmer Co., Ltd.). The Wnt signal activation rate (%) of each well was determined, and a concentration (IC50) which is required for inhibiting the Wnt signal activity of a substance of interest by 50% was calculated, wherein the luminosity of a well to which a sample solution was not added and LiCl was added was defined as a 100% Wnt signal activity and the luminosity of a well to which either of a sample solution or LiCl was not added was defined as a 0% Wnt signal activity.

[4] = aqueous buffer, kinetic from dmso stock

C=CCN1CC(=O)N2[C@@H](Cc3ccc(O)cc3)C(=O)N(Cc3ccc(F)c(N4CC(N5CCN(C)CC5)C4)n3)C[C@@H]2N1C(=O)NCc1ccccc1 [Example 8, (6S,9aS)-N-Benzyl-8-((5-fluoro-6-(3-(4-methylpiperazin-1-yl)azetidin-1-yl)pyridin-2-yl)methyl)-6-((4-hydroxyphenyl)methyl)-4,7-dioxo-2-(prop-2-en-1-yl)-octahydro-1H-pyrazino[2,1-c][1,2,4]triazine-1-carboxamide]
Papp [1]: 2.3 ×10⁻⁶ cm/s | solubility [2, 4]: 195 µM (≈ 139 µg/mL) | Test Example 2 residual ratio of the test substance [3]: 40% | IC50 (Wnt signal): 200 nM

C=CCN1CC(=O)N2[C@@H](Cc3ccc(O)cc3)C(=O)N(Cc3cccc(N4CC(N5CCN(C(C)C)CC5)C4)n3)C[C@@H]2N1C(=O)NCc1ccccc1 [Example 9, (6S,9aS)-N-Benzyl-6-((4-hydroxyphenyl)methyl)-4,7-dioxo-2-(prop-2-en-1-yl)-8-((6-(3-(4-(propan-2-yl)piperazin-1-yl)azetidin-1-yl)pyridin-2-yl)methyl)-octahydro-1H-pyrazino[2,1-c][1,2,4]triazine-1-carboxamide]
Papp [1]: 1.38 ×10⁻⁶ cm/s | solubility [2, 4]: 194 µM (≈ 140 µg/mL) | Test Example 2 residual ratio of the test substance [3]: 34% | IC50 (Wnt signal): 150 nM

C=CCN1CC(=O)N2[C@@H](Cc3ccc(O)cc3F)C(=O)N(Cc3ccc(F)c(N4CC(N5CCN(C)CC5)C4)n3)C[C@@H]2N1C(=O)NCc1ccccc1 [Example 10, (6S,9aS)-N-Benzyl-6-((2-fluoro-4-hydroxyphenyl)methyl)-8-((5-fluoro-6-(3-(4-methylpiperazin-1-yl)azetidin-1-yl)pyridin-2-yl)methyl)-4,7-dioxo-2-(prop-2-en-1-yl)-octahydro-1H-pyrazino[2,1-c][1,2,4]triazine-1-carboxamide]
Papp [1]: 3.75 ×10⁻⁶ cm/s | solubility [2, 4]: 184 µM (≈ 134 µg/mL) | Test Example 2 residual ratio of the test substance [3]: 28% | IC50 (Wnt signal): 44 nM

C=CCN1CC(=O)N2[C@@H](Cc3ccc(O)cc3F)C(=O)N(Cc3cccc(N4CC(N5CCN(C(C)C)CC5)C4)n3)C[C@@H]2N1C(=O)NCc1ccccc1 [Example 11, (6S,9aS)-N-Benzyl-6-((2-fluoro-4-hydroxyphenyl)methyl)-4,7-dioxo-2-(prop-2-en-1-yl)-8-((6-(3-(4-(propan-2-yl)piperazin-1-yl)azetidin-1-yl)pyridin-2-yl)methyl)-octahydro-1H-pyrazino[2,1-c][1,2,4]triazine-1-carboxamide]
Papp [1]: 2.55 ×10⁻⁶ cm/s | solubility [2, 4]: 192 µM (≈ 142 µg/mL) | Test Example 2 residual ratio of the test substance [3]: 26% | IC50 (Wnt signal): 39 nM

C=CCN1CC(=O)N2[C@@H](Cc3c(F)cc(O)cc3F)C(=O)N(Cc3cccc(N4CC(N5CCN(C(C)C)CC5)C4)n3)C[C@@H]2N1C(=O)NCc1ccccc1 [Example 12, (6S,9aS)-N-Benzyl-6-((2,6-difluoro-4-hydroxyphenyl)methyl)-4,7-dioxo-2-(prop-2-en-1-yl)-8-((6-(3-(4-(propan-2-yl)piperazin-1-yl)azetidin-1-yl)pyridin-2-yl)methyl)-octahydro-1H-pyrazino[2,1-c][1,2,4]triazine-1-carboxamide]
Papp [1]: 0.87 ×10⁻⁶ cm/s | solubility [2, 4]: 188 µM (≈ 142 µg/mL) | Test Example 2 residual ratio of the test substance [3]: 38% | IC50 (Wnt signal): 96 nM

C=CCN1CC(=O)N2[C@@H](Cc3c(F)cc(O)cc3F)C(=O)N(Cc3cccc(N4CC(N5CCN(CC)CC5)C4)n3)C[C@@H]2N1C(=O)NCc1ccccc1 [Example 13, (6S,9aS)-N-Benzyl-6-((2,6-difluoro-4-hydroxyphenyl)methyl)-8-((6-(3-(4-ethylpiperazin-1-yl)azetidin-1-yl)pyridin-2-yl)methyl)-4,7-dioxo-2-(prop-2-en-1-yl)-octahydro-1H-pyrazino[2,1-c][1,2,4]triazine-1-carboxamide]
Papp [1]: 0.52 ×10⁻⁶ cm/s | solubility [2]: 200 µM (≈ 149 µg/mL) | Test Example 2 residual ratio of the test substance [3]: 56% | IC50 (Wnt signal): 140 nM

C=CCN1CC(=O)N2[C@@H](Cc3c(F)cc(O)cc3F)C(=O)N(Cc3cccc(N4CC(N5CCN(C)CC5)C4)n3)C[C@@H]2N1C(=O)NCc1ccccc1 [Example 14, (6S,9aS)-N-Benzyl-6-((2,6-difluoro-4-hydroxyphenyl)methyl)-8-((6-(3-(4-methylpiperazin-1-yl)azetidin-1-yl)pyridin-2-yl)methyl)-4,7-dioxo-2-(prop-2-en-1-yl)-octahydro-1H-pyrazino[2,1-c][1,2,4]triazine-1-carboxamide]
Papp [1]: 0.39 ×10⁻⁶ cm/s | solubility [2, 4]: 197 µM (≈ 144 µg/mL) | Test Example 2 residual ratio of the test substance [3]: 69% | IC50 (Wnt signal): 270 nM

C=CCN1CC(=O)N2[C@@H](Cc3ccc(O)cc3F)C(=O)N(Cc3cccc(N4CC(N5CCN(C)C[C@@H]5C)C4)n3)C[C@@H]2N1C(=O)NCc1ccccc1 [Example 15, (6S,9aS)-N-Benzyl-8-((6-(3-((2S)-2,4-dimethylpiperazin-1-yl)azetidin-1-yl)pyridin-2-yl)methyl)-6-((2-fluoro-4-hydroxyphenyl)methyl)-4,7-dioxo-2-(prop-2-en-1-yl)-octahydro-1H-pyrazino[2,1-c][1,2,4]triazine-1-carboxamide]
Papp [1]: 2.38 ×10⁻⁶ cm/s | solubility [2, 4]: 195 µM (≈ 142 µg/mL) | Test Example 2 residual ratio of the test substance [3]: 45% | IC50 (Wnt signal): 75 nM

C=CCN1CC(=O)N2[C@@H](Cc3c(F)cc(O)cc3F)C(=O)N(Cc3cccc(N4CC(N5CCN(C)[C@@H](C)C5)C4)n3)C[C@@H]2N1C(=O)NCc1ccccc1 [Example 16, (6S,9aS)-N-Benzyl-6-((2,6-difluoro-4-hydroxyphenyl)methyl)-8-((6-(3-((3S)-3,4-dimethylpiperazin-1-yl)azetidin-1-yl)pyridin-2-yl)methyl)-4,7-dioxo-2-(prop-2-en-1-yl)-octahydro-1H-pyrazino[2,1-c][1,2,4]triazine-1-carboxamide]
Papp [1]: 0.51 ×10⁻⁶ cm/s | solubility [2, 4]: 197 µM (≈ 147 µg/mL) | Test Example 2 residual ratio of the test substance [3]: 63% | IC50 (Wnt signal): 220 nM
